Patent US6660530B2, “Methods for labeling β-amyloid plaques and neurofibrillary tangles” (The Regents of the University of California, priority 1998, dated 2003)
Entries after “also recorded” stand apart in the source; their conditions may differ.

How the values were obtained:
[1] = Standing of the free base at room temperature after neutralization (TLC); assay type: physicochemical; conditions: light yellow oil after NaHCO3 wash
Protocol: Dichloromethane (10 mL) was added and the solution was washed with saturated NaHCO3 solution, dried, and evaporated in vacuo. A light yellow oil was obtained, which, on standing at room temperature, turned dark red. […] Selected ^1H NMR signals after neutralization: δ2.72 (s, 3H, CH3), 3.09 and 3.35 (t, J=5 Hz, 8H, piperazine), 7.08 (s, 1H, 5-H), 8.02 (s, 1H, 1-H).

[2] = target: amyloid plaques in Alzheimer's brain (Homo sapiens, UniProt P05067); conditions: cited from earlier work
amyloid plaques in Alzheimer's brain, sequence (P05067 672-713 limits assumed): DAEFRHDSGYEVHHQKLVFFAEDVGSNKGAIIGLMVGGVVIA

[3] = target: T1, β-amyloid 1-40 (Homo sapiens, UniProt P05067); assay: Labeling of aggregated β-amyloid dried onto a slide; assay type: binding; conditions: aggregated 8 days at 37° C., dried onto gelatin coated slide
T1 construct: an aliquot of β-amyloid 1-40 was allowed to aggregate
T1 sequence (P05067 672-711 limits assumed): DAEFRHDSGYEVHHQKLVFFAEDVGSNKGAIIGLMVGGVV
Protocol: […] 5 μL were smeared on slides, air-dried and then rehydrated with distilled water. Alternatively, Aβ-positive brain tissue sections were rehydrated with distilled water. DDNP working solution was applied to each slide for 30 minutes at room temperature. The slides were washed three times for five minutes with distilled water. The slides were coverslipped with fluorescent protectant mounding media (Vectashield™, available Vector Labs., Burlingame, Calif.) and observed under a fluorescence microscope with a thioflavin S or FITC filter.

[4] = Storage of stock solution in the freezer; assay type: physicochemical; conditions: stock in 100% ethanol, used at 1/100 to 1/1,000 dilutions
Protocol: (§1) A 2.1 mg/mL DDNP stock solution was prepared, which was adjusted to 8 mM in 100% ethanol. A DDNP working solution was prepared by diluting the stock solution with distilled water in a ratio of 1:100-1000 (stock solution:distilled water).

[5] = target: T2, aggregated β-amyloid 1-40 injected into rat cortex (Homo sapiens, UniProt P05067); assay: In vivo labeling of aggregated β-amyloid injected into rat cortex
T2 construct: an aliquot of β-amyloid 1-40 was allowed to aggregate
T2 sequence (P05067 672-711 limits assumed): as above
Protocol: β-amyloid 250 μM (1.25 mg/mL in distilled water) was aggregated at 37° C. for 48 hours to produce fibrils confirmed by smears. Three rats were anesthetized. 3 μL of a solution of Aβ fibrils (1.25 μg/μL) were injected unilaterally into the cortex of each rat (Bregma 0, AP-4.1 mm, ML+2.0 mm, DV-3.1 mm). Then 3 μL of phosphate buffered saline (PBS) were injected into the contralateral side of each rat brain as a vehicle control. After injection, the needle remained for 5 minutes to prevent reflux, and then the cranial hole was sealed with bone wax. […]
[…] Additional immersion fixation of rat brain was at 4° C. overnight with PLP fixative. The rat brains were washed with PBS, saturated in 10 and 20% sucrose, and snap frozen in chilled isopentane (−70° C.) with liquid nitrogen. The brains were cryostat sectioned at […] around the needle-track and directly coverslipped with glycerol and fluorescence protectant (Vectashield™).

[6] = target: T3, plaque in Tg2576 HuAPPsw transgenic mouse brain (Homo sapiens, UniProt P05067); assay: In vitro fluorescence labeling of transgenic mouse brain section; assay type: binding
T3 construct: from tissue; host or cells: brain section of Tg2576 HuAPPsw transgenic mouse
T3 sequence (P05067 672-713 limits assumed): as the sequence (P05067 672-713 limits assumed) above
Protocol: A 2.1 mg/mL DDNP stock solution was prepared, which was adjusted to 8 mM in 100% ethanol. A DDNP working solution was prepared by diluting the stock solution with distilled water in a ratio of 1:100-1000 (stock solution:distilled water). β-amyloid 250 μM (1.25 mg/mL in distilled water) was aggregated at 37° C. for 48 hours. 5 μL were smeared on slides, air-dried and then rehydrated with distilled water. Alternatively, Aβ-positive brain tissue sections were rehydrated with distilled water. DDNP working solution was applied to each slide for 30 minutes at room temperature. The slides were washed three times for five minutes with distilled water. The slides were coverslipped with fluorescent protectant mounding media (VectashieldTM, available Vector Labs., Burlingame, Calif.) and observed under a fluorescence microscope with a thioflavin S or FITC filter.

[7] = system: β-amyloid plaques and neurofibrillary tangles; assay: In vitro fluorescence labeling of Alzheimer's disease brain tissue sections; assay type: binding, human; conditions: for visualization of neurofibrillary tangles, amyloid peptides and diffuse amyloid: all Alzheimer's disease brain specimens, fluorescence; for fluorescent labeling of amyloid plaques: sections of Alzheimer's disease patient brain, fluorescence microscope
Protocol: as §1
β-amyloid 250 μM (1.25 mg/mL in distilled water) was aggregated at 37° C. for 48 hours. 5 μL were smeared on slides, air-dried and then rehydrated with distilled water. Alternatively, Aβ-positive brain tissue sections were rehydrated with distilled water. DDNP working solution was applied to each slide for 30 minutes at room temperature. The slides were washed three times for five minutes with distilled water. The slides were coverslipped with fluorescent protectant mounding media (Vectashield™, available Vector Labs., Burlingame, Calif.) and observed under a fluorescence microscope with a thioflavin S or FITC filter.
Since DDNP and its derivatives are fluorescent, an evaluation of the ability of [F-18]FDDNP to label β-amyloid plaques and neurofibrillary tangles in vitro was also performed with the same brain specimens.
In FIG. 5, the central image was obtained by immunostaining a forty five micrometer cryostate temporal cortex section of an Alzheimer's disease patient incubated with AT8 (anti-phosphotau) and 10G4 (anti-AB1-15) at 1:800. Insets are adjacent sections of the same Alzheimer's disease brain specimen stained with FDDNP. Images were generated using fluorescent scanning microscopy. Green arrows indicate approximate origin of inset with reference to central immunostaining section.

[8] = system: β-amyloid plaques and neurofibrillary tangles; assay: PET imaging of patients after intravenous [F-18]FDDNP; assay type: in vivo, human
Protocol: A patient was placed in a tomograph to obtain brain dynamic PET images. 8.0 mCi of 2-(1.1-dicyanopropen-2-yl)-6-(2-[^18F]-fluoroethyl)-methylamino)-naphthalene ([F18]FDDNP) (specific activity: 5-12 Ci/micromol; mass:˜1 nanomol), prepared as described in Example 1(f), were injected intravenously into the arm of the patient. Dynamic acquisition data of brain images were recorded simultaneously in forty-seven brain planes for two hours.
Labeling and detection of human β-amyloid plaques and neurofibrillary tangles in vivo were conducted using the following procedures. Ten human subjects, seven Alzheimer's diseased patients (ages 71 to 80) and three control patients (ages 62 to 82) were studied. The patients were positioned supine in an EXACT HR+962 tomograph (Siemens-CTI, Knoxville, Tenn.) with the imaging plane parallel to the orbito-meatal line. Venous catheterization was performed, and then [F-18]FDDNP (5-10 mCi) in human serum albumin (25%) was administered as a bolus via the venous catheter. Sequential emission scans were obtained beginning immediately after [F-18]FDDNP administration using the following scan sequence: six 30 second scans, four 3 minute scans, five 10 minute scans, and three 20 minute scans. Rapid venous blood sampling was performed via the indwelling catheter in two subjects for input function determination and plasma metabolite analysis.
The residence time shown is in reference to that in the pons, an area known to have limited involvement in Alzheimer's disease pathology. The residence time was calculated from the clearance rates of the tracer in affected regions of interest (ROI) and in the pons as:
Residence time=[1/clearance rate for affected ROI]−[1/clearance rate for pons]
Separate ROIs were defined in entorhinal cortex, hippocampus, lateral temporal cortex and pons. The region with the slowest clearance rate was used as the affected ROI in the calculation of the residence time shown in FIG. 4.

[9] = system: β-amyloid plaques and neurofibrillary tangles; assay: In vitro autoradiography with brain specimens of Alzheimer diseased patients; assay type: binding, human

With `CC(=C(C#N)C#N)c1ccc2cc(N3CCNCC3)ccc2c1` [2-[1-(6-piperazino-2-naphthyl)ethylidene]malononitrile] the “stability on standing at room temperature” value [1] was “decomposition”.
For `O=C(O)c1cc(/N=N/c2ccc(-c3ccc(/N=N/c4ccc(O)c(C(=O)O)c4)cc3)cc2)ccc1O` [Chrysamine G], the “ability to label amyloid plaques in Alzheimer's brain” value [2] is listed as “weak”.
In the case of `CC(=C(C#N)C#N)c1ccc2cc(N(C)C)ccc2c1` [DDNP, 2-(1,1-dicyanopropen-2-yl)-6-dimethylaminonaphthalene], the melting point is reported as 154.5 to 155 °C, the “fluorescence of labeled aggregated β-amyloid 1-40” value [3] is reported as “fibrillar fluorescence consistent with amyloid” and the “stability of stock solution” value [4] is reported as “can be kept in the freezer for six months and still produce acceptable results”. The “fluorescent labeling after formic acid treatment of section through the injection site” value ([5]; rat) was “removes fluorescent labeling”, the “in vivo fluorescent labeling of injected amyloid” value ([5]; rat, 100 μL of 640 μM DDNP into the carotid artery, sacrificed after 20 minutes, brain cryosections) was “fluorescently labeled amyloid at the tip of the need track” and the “labeling contralateral to the amyloid injection site” value ([5]; rat, side where no amyloid is present) was “weak”. The “passage of the blood brain barrier” value ([5]; rats) was “passes the blood brain barrier”, the “fluorescent labeling of plaque” value [6] was “labeling of a plaque” and the “visualization of neurofibrillary tangles, amyloid peptides and diffuse amyloid” value [7] was “excellent visualization”. The “fluorescent labeling of tangles” value ([7]; cortex of the brain of an Alzheimer's disease patient) was “weak” and the “fluorescent labeling of amyloid plaques” value [7] was “able to label amyloid plaques; also recorded: readily labeled amyloid deposits; also recorded: amyloid plaques labeled; also recorded: strong; also recorded: labeling of a single, large plaque with an amyloid core”.
`CC(=O)c1ccc2cc(N3CCN(C(=O)OC(C)(C)C)CC3)ccc2c1` [Example 1(d), tert-Butyl-4-(6-acetyl-2-naphthyl)-1-piperazinecarboxylate] gave a melting point of 153 to 154 °C.
With `CC(=C(C#N)C#N)c1ccc2cc(N(C)CC[18F])ccc2c1` [[F-18]FDDNP] the “estimated residence time in reference to pons” value ([8]; Alzheimer's diseased patients vs control patients, affected ROI with slowest clearance rate) was “different from values in control patients”, the “labeling of brain structures / accumulation of label” value ([8]; human patient, 8.0 mCi intravenously, dynamic PET for two hours) was “labels brain by structures in a manner consistent with the presence of beta amyloid plaques and neurofibrillary tangles; also recorded: maximum accumulation” and the “regional clearance from brain” value ([8]; human, brain areas known to accumulate β-amyloid plaques and neurofibrillary tangles) was “slower clearance”. For the same compound, the “crossing of the blood brain barrier” value ([8]; human, intravenous injection) was “crosses the blood brain barrier readily in proportion to blood flow”, the “retention of activity in hippocampus-amygdala-entorhinal cortex” value ([8]; human, most cases, even patients with low severity of symptoms) was “high retention” and the “binding / distribution of activity in autoradiography” value [9] was “Binding was observed in hippocampus, temporal and parietal cortex”. For the same compound, the “visualization of neurofibrillary tangles, amyloid peptides and diffuse amyloid” value [7] was “excellent visualization” and the “structures stained (FIG. 5 insets)” value ([7]; temporal cortex sections of an Alzheimer's disease patient, fluorescent scanning microscopy) was “(1) neuritic plaques, (2) diffuse plaque, (3) vascular amyloid, (4) dense plaques and tangles, and (5) dense tangles”.
With Thioflavin S [reference compound] the “fluorescent labeling of amyloid plaques” value [7] was “labeling of a cored plaque”.
